Experiment [1] has as its system Heme. Put plainly: Inhibition of heme crystallization by hemichrome inhibition of beta-hematin assay. The experiment is classed as functional.
The subject of experiment [2] is Plasmodium falciparum. The experiment in a line: Antimicrobial activity against Plasmodium falciparum 3D7 by DAPI growth inhibition assay. The experiment is classed as functional, organism-based.
The test system of experiment [3] is Heme. Put plainly: Inhibition of heme crystallization by cell-free heme crystallization screen assay.

Turning to `CCN(CC)Cc1cc(Nc2ccnc3cc(Cl)ccc23)ccc1O.Cl`, the figures for the IC50 in experiment [1], in experiment [2] and in experiment [3] were 1.45 equiv, 0.0068 µM and 67 µM, respectively.

With `CCN(CC)CCCC(C)Nc1ccnc2cc(Cl)ccc12` (configuration not stated) [CHLOROQUINE], the IC50 is 1.91 equiv in experiment [1] and 374 µM in experiment [3].

As to `OC(c1cc(C(F)(F)F)nc2c(C(F)(F)F)cccc12)C1CCCCN1` (configuration not stated) [MEFLOQUINE], the IC50 in experiment [1] turned out to be 2.9 equiv; in experiment [3] it was 476 µM.

(Values after ChEMBL document CHEMBL1649447, “Colorimetric high-throughput screen for detection of heme crystallization inhibitors” (Antimicrob Agents Chemother, 2009).)
